One assay deals with C57/B6 mice in telogen. Description: Anagen induction by topical treatment of shaved wildtype mice in telogen. To be noted: for days of treatment until treated follicles re-initiate anagen: 7 week old mice, treated for 24 days; for mice displaying skin darkening and hair growth within 10 days of starting treatment: 8.5 week old mice treated for 5 days. It counts as in vivo, mouse. From the text:
It was hypothesized that inhibition of JAK-STAT signaling promotes entry into the hair cycle in mice. To determine the onset of anagen, backskin hairs were trimmed with an electric shaver, and entry of HF into anagen was observed by the appearance of darkening skin and by hair regrowth. For the hair cycle experiments described in FIG. 1A, biopsies were taken from 2 mice/time point, and the experiment was replicated on 3 sets of littermates. For the experiments described in supp. FIGS. 1C&D, 3-4 mice were used per group (7 week vs. 8.5 week), and the experiment was replicated 3 times. […] The experiment presented in FIG. 1E was independently replicated once, with 3 mice/condition. The experiments described in FIG. 2A, 3 mice/genotype were utilized, and the experiment was replicated in 2 sets of littermates.
Ruxolitinib (INCB018424) was purchased from ChemieTek (catalog number CT-INCB). […] Hedgehog agonist (SAG) was purchased from EMD Millipore (catalog number 566660). JAK-STAT inhibitors were dissolved in DMSO and used at 2-3% for in vivo experiments, as indicated, and 400 nM for in vitro experiments. SAG was used at 120 uM, as described in Paladini et al (2).

The test system of assay [1] is hair germ compartment (P-cad+). Put plainly: Hair germ proliferation (Ki67 / EdU) in treated mouse skin. It is filed as in vivo.
Description: C57/B6 mice at 8.5 weeks of age were treated on half of the dorsal back with either topical vehicle control (left side) or JAK inhibitors (right side). Four hours post treatment each mouse received a single injection of 20 mg/kg 5-ethynyl-2′-deoxyuridine (EdU) (Invitrogen). One hour after injection, skin was harvested, fixed and stained using the Click-iT EdU Alexa Fluor 488 Imaging Kit (Life Technologies) per manufacturer's instructions, and co-stained for P-cadherin. Experiment was replicated once, with 1 mouse/time point.
The test system of assay [2] is whole skin gene expression. Put plainly: Whole skin microarray / IPA pathway analysis after 4 days of treatment. It is filed as in vivo, mouse. To be noted: 8.5-week-old mice. The procedure: Gene expression profiling was performed on whole skin biopsies from 12 B6/C57 female mice, 8.5 weeks of age. Biopsies were taken from dorsal skin at day 0 (T0) of the experiment. […] Quality control was performed using the affy analysisQC package from http://arrayanalysis.org/. […] Data were normalized using the GCRMA method as implemented in affyAnalysisQC. LIMMA was used with a multilevel model to identify genes that were differentially expressed between samples at T5 and T0 for each treatment group (DMSO, RUXO, and TOFA) using a threshold of fold change=1.5 and P<0.05.
Total RNA was extracted using the Qiagen RNAeasy micro kit. The Ovation RNA Amplification kit (Nugen) was used to generate amplified cDNA for microarray analysis. Arrays used were Affymetrix mouse 430 2.0, hybridized at the CUMC microarray facility. qPCR analysis was performed on the ABI 7300 cycler. Primers sequences available in Table 2.

Assay [3] has as its system human fetal scalp skin grafts. Description: Human skin grafting assay on SCID mice. It counts as in vivo. Particulars: daily topical application, 4 weeks.
Description: The mice were bandaged, and the grafts were left to recover for 6 weeks. […] Grafts were treated daily with topical application of vehicle control, ruxolitinib or tofacitinib. Treatment continued for 4 weeks, and pictures were taken every 3-5 days. Experiments were performed with skin from 3 separate donors. Quantification of hair growth was performed using ImageJ. Taking advantage of the fact that the donor hair was dark and the grafted mouse was white, the intensity of pigmentation was measured as a proxy for density of HF. Since control and experimental treatments were performed on the same graft, each image allows for the direct comparison between vehicle- and drug-treated skin. Darker regions are given a lower value than bright regions. Ratio was calculated by averaging the intensity values for the control treated side, by the intensity values for drug-treated side, accounting for pre-treatment differences in hair growth on the graft and for changes in hair density occurring over time.
Assay [4] concerns human adult scalp hair follicles. Put plainly: Human hair follicle organ culture assay. It is filed as cell-based. As to the method:
Adult human follicles were microdissected from occipital skin under sterile conditions as previously described.
Media was replaced every 2 days, and images of individual follicles were taken every 2 days. Analysis of the growth rate of each follicle was performed using Image J.

In a further assay the test system is human DP spheres. Description: Patch assay with dermal papilla spheres. It counts as in vivo. Particulars: DP spheres treated at 400 nM. As to the method: DP cells were grown in spheres as previously described (35). […] Each hanging drop contained 1000 cells, which aggregated to form DP spheroids after 24 hours. 48 hours after plating, 500 spheres in each condition were collected for use in the patch assay. Each experiment was performed with cells derived from a single individual, and four separate experiments were conducted. Keratinocytes were isolated from new born mice following the protocol outlined by Lichti et al (63). Cells were cultured in dkSFM for 2-4 days prior to being harvested for the patch assay. 1×10^6 newborn murine keratinocytes were then mixed together with 500 human DP spheres in each condition, and injected subdermally into dorsal skin of a nude mouse. 12 days after performing the injections, cysts had developed in the dermis, some which contained HF and hair fibers. These cysts were collected, photographed and then digested in 0.35% collagenase. The digested slurries were spread onto microscope slides and hair fiber counts were manually performed under a stereo microscope.

The subject of assay [5] is human DP spheres gene expression. Description: DP spheres microarray / GEDI / gene set enrichment analysis. It is filed as cell-based. As to the method: For the DP spheres microarray analysis, cells were prepared from three different donors, and Affymetrix human HG-U133 PLUS 2.0 arrays were hybridized at the CUMC genomics facility. Quality control and data normalization was performed as described above. For the organ culture experiment, 3 sets of repeats were performed, each times using HF derived from a single individual.
For the DP spheres microarray analysis, total RNA was extracted from DP spheres cultured in DMSO, ruxolitinib or tofacitinib from each of the three donors using the Qiagen RNAeasy micro kit. The Ovation RNA Amplification kit (Nugen) was used to generate amplified cDNA for microarray analysis. LIMMA was used with a linear model treating both treatment and the blocking factor, donor, as fixed effects. Contrasts of interest between treatments were used to identify genes that were differentially expressed between pairs of treatments for the treatments DMSO, RUXO, and TOFA. A threshold of absolute fold change=1.5 and P<0.05 was employed. For GSEA, the HG_U133_Plus_2.0 chip annotation file downloaded from ftp.broad.mit.edullpub/gsedannotations/was used to annotate the Affymetrix ProbeSets and to remove duplicate ProbeSets for a given Gene Symbol. Duplicates were removed based on the maximum absolute fold-change observed for each Gene Symbol. Pre-ranked gene lists were generated for each treatment contrast of interest, using the moderated t-statistics returned by LIMMA. GSEA was performed on these lists to identify KEGG pathways overrepresented in each list (ES p-value 0.01).
The gene set enrichment analysis comparing tofacitinib-treated and control cells was performed by generating a list of all detected transcripts ranked by differential expression (p-value), and direction of fold change (up or down). This ranked list was tested for enrichment of the union of territories 2 and 4 (gene list provided in Table 3) as described previously (35). A null distribution for computing the normalized enrichment score (NES) and its associated p-value was obtained by label shuffling to randomize the gene rankings. These randomized sets were then used to compute null enrichment scores over 5000 iterations to generate a null distribution. The observed leading edge enrichment score was normalized to this distribution and a 2-tailed p-value was generated for this NES.

Another assay deals with STAT1, STAT3 and STAT5. Put plainly: OSM-induced STAT activation in cultured keratinocytes. It counts as cell-based, mouse.
For a further assay, the system named is STAT3 and STAT5. Put plainly: STAT3 and STAT5 activation in whole skin treated in vivo. Also noted: species or system mouse.
The subject of a further assay is mouse keratinocytes. Description: Colony forming assay with mouse keratinocytes harvested at telogen. It counts as cell-based.
Assay [6] has as its system OSM-Rβ. Description: OSM-Rβ expression in mouse skin treated in vivo during telogen. Particulars: whole skin biopsies daily over 5 days of treatment.
The test system of assay [7] is OSM-Rβ. Put plainly: OSM-Rβ expression in cultured mouse keratinocytes. It counts as cell-based. To be noted: recombinant mouse OSM at 20 ng/ml.

For `C[C@@H]1CCN(C(=O)CC#N)C[C@@H]1N(C)c1ncnc2[nH]ccc12` [tofacitinib], in the assay with C57/B6 mice in telogen, the “days of treatment until treated follicles re-initiate anagen” value is ≤ 21 days; the “mice displaying skin darkening and hair growth within 10 days of starting treatment” value is ~90%. Besides, the “re-entry into the hair cycle” value in the assay with C57/B6 mice in telogen (topical, half of dorsal back, treated three weeks) is listed as “rapid re-entry into the hair cycle, with kinetics similar to the Shh agonist”. For the same molecule, in [1] (after three treatments, skin harvested 5 hours after treatment), the “Edu+ cells within the hair germ (P-cadherin+) compartment” value was “clearly visible”. Further, in assay [1] (mice in telogen treated 4 days), the “proliferation within the hair germ compartment (P-cad+)” value is reported as “Significant proliferation”. For the same molecule, in [2] (T5 vs T0), the “expression of hair cycle regulators Shh and Prom1” value is listed as “significantly upregulated”; the “pathways enriched by only one of the drug treatments” value was “pathways involved in cell motility and migration, such as Rho and integrin signaling”. The “pathways enriched in both drug treatments (IPA)” value in assay [2] (T5 vs T0, not in vehicle) is “melanogenesis and the Wnt pathway were enriched”. In addition, in assay [3], the “HF growth on graft compared to controls” value was “denser HF growth”. For the same molecule, in assay [4] (400 nM, follicles from a single donor), the “length of hair shafts / rate of hair elongation” value was “significantly increased length of hair shafts”. Besides, in assay [4] (follicles from two individuals, did not reach statistical significance), the “growth rate of anagen, repeat experiment” value is on record as “increased the growth rate of anagen”. For the same molecule, the “inductivity of DP spheres” value in the assay on human DP spheres is on record as “did enhance inductivity”. Also, in the assay on human DP spheres (with neonatal mouse keratinocytes in nude mice), the “size and numbers of HFs induced” value was “larger and significantly greater numbers of HFs”. For the same molecule, in assay [5], the “expression of LEF1, WIF1 and CD133” value is recorded as “upregulate”; the “expression of TGβ2, BMP6 and LEF1” value is reported as “upregulated”. In assay [5] (treated vs untreated spheres), the “gene set enrichment of territory T4” value is listed as “significantly enriched”. Besides, the “gene set enrichment of territory T2” value in assay [5] (treated vs untreated spheres, overlap only marginally significant) is “enriched”. In addition, in assay [5] (vs control), the “expression of FGFR1, ACVRL1, IGFR1, OSMR and PTGFR (region 1)” value is “repressed in both treatments but lower in tofacitinib treatment”; the “expression of members of the TGFβ pathway and the BMP pathway (regions 3 and 4)” value is listed as “upregulated”; the “expression of pro-apoptotic genes BAX, BCL2L11 and CASP12 (region 2)” value was “downregulated”; the “key regulators of the WNT pathway (LEF1) and members of the NOTCH pathway” value was “overrepresented”. Moreover, in the assay on STAT1, STAT3 and STAT5 (in vitro cultured keratinocytes), the “effect on OSM-induced STAT1, STAT3 and STAT5 activation” value is listed as “efficiently abrogated”. Also, the “STAT3 and STAT5 activation” value with STAT3 and STAT5 is on record as “effective inhibition”. Besides, the “effect on OSM growth inhibition” value in the assay on mouse keratinocytes (added to OSM) is on record as “reversed partially”. For the same molecule, the “number of keratinocyte colonies” value with mouse keratinocytes (drug alone) is “increase the number of keratinocyte colonies”. Further, the “OSM-Rβ expression, qRT-PCR” value in the assay on OSM-Rβ [6] is “Downregulation”.

As to `N#CC[C@H](C1CCCC1)n1cc(-c2ncnc3[nH]ccc23)cn1` [ruxolitinib], in the assay on C57/B6 mice in telogen, the “days of treatment until treated follicles re-initiate anagen” value was ≤ 18 days; the “mice displaying skin darkening and hair growth within 10 days of starting treatment” value is recorded as ~90%.

B1: OSM: oncostatin M, secreted cytokine of the IL-6 family; recombinant mouse OSM used at 20 ng/ml (protein, UniProt P53347 25-206, looked up)
Oncostatin-M: NRGCSNSSSQLLSQLQNQANLTGNTESLLEPYIRLQNLNTPDLRAACTQHSVAFPSEDTLRQLSKPHFLSTVYTTLDRVLYQLDALRQKFLKTPAFPKLDSARHNILGIRNNVFCMARLLNHSLEIPEPTQTDSGASRSTTTPDVFNTKIGSCGFLWGYHRFMGSVGRVFREWDDGSTRSRR
As to B1, in the assay with STAT1, STAT3 and STAT5 (within 10 minutes of OSM treatment), the “activation of STAT1, STAT3 and STAT5 transcription factors” value was “activated”. For the same molecule, the “effect on keratinocyte colony growth” value in the assay on mouse keratinocytes (OSM alone) was “growth inhibitory effect”. The “expression of OSM-Rβ” value in the assay with OSM-Rβ [7] is listed as “upregulated”.

The values are drawn from patent US20180291378A1, “METHODS AND COMPOSITIONS FOR PROMOTING HAIR GROWTH” (THE TRUSTEES OF COLUMBIA UNIVERSITY IN THE CITY OF NEW YORK, priority 2015, published 2018).
